Experimental data from patent publication US9259401B2 (priority 2011, dated 2016).

Key:
5-hydroxytryptamine = assay: Biological amine levels by HPLC-ECD after 45 min: 5-hydroxytryptamine; assay type: in vivo, mice; settings: fluoxetine 10 mg/kg
Protocol: (§1) Test Substances: […] Animals: Male Laca mice. Test Procedures: Animals were sacrificed after 45 min of drug administration similar to the time period of behavioral observations. HPLC-ECD detector: Mobile phase—Phosphate buffer: […] • Column—ODS-3 C-18 column (250×4.6 mm I.D.; 5 μm particle size)

Dopamine = assay: Biological amine levels by HPLC-ECD after 45 min: dopamine; assay type: in vivo, mice; settings: fluoxetine 10 mg/kg
Protocol: as §1

Male Laca mice = assay: Porsolt Forced Swim test (behavioural despair test); assay type: in vivo
Protocol: Method: Porsolt Forced Swim test (also called behavioural despair test)
Animals are subjected to two trials during which they are force to swim in an acrylic glass cylinder filled with water and from which they cannot escape. The first trial lasts 15 minutes. Then, after 24-hours, a second trial is performed which lasts 5 minutes. The time that the animal spends without moving in the second trial is measured. This immobility time is decreased by antidepressants.
After some time, the mice give up the attempt to escape from the water and subside into immobility. The duration of the immobility is measured. An animal was considered to be immobile whenever it remained floating passively in the water in a slightly hunched but upright position, its nose above the water surface. […] The total immobility period during the 6-min test was recorded with the help of stopwatch.
The immobility period data obtained from tables 1, 2 and 3 is plotted against the dose administered in FIG. 1, FIG. 2 and FIG. 3 respectively, as shown in the drawing accompanying this specification.
Test Procedures: Porsolt Forced Swim test. Rectangular glass jar (25×12×25 cm^3) containing 15 cm of water maintained at 24±1° C.
The immobility period data obtained from Tables 4, 5, 6 and 7 is plotted against the dose administered in FIG. 4, FIG. 5, FIG. 6 and FIG. 7 respectively, as shown in the drawing accompanying this specification.

Norepinephrine = assay: Biological amine levels by HPLC-ECD after 45 min: norepinephrine; assay type: in vivo, mice; settings: fluoxetine 10 mg/kg
Protocol: as §1

[1] = Table 4, fluoxetine alone 5 mg/kg ip
[2] = Table 5, venlafaxine alone 2 mg/kg ip
[3] = Table 6, desipramine alone 5 mg/kg ip
[4] = Table 7, tranylcypromine alone 5 mg/kg ip

## CNCCC(Oc1ccc(C(F)(F)F)cc1)c1ccccc1 (centres unmarked) [Fluoxetine]
5-hydroxytryptamine
  5-hydroxytryptamine % increase w.r.t Control: 36.52%
5-hydroxytryptamine; n = 5
  5-hydroxytryptamine (ng/mg tissue): 5.42 ± 0.13 ng/mg tissue
Dopamine
  Dopamine % increase w.r.t Control: 12.15%
Dopamine; n = 5
  Dopamine (ng/mg tissue): 6.09 ± 0.54 ng/mg tissue
Male Laca mice; Table 1, fluoxetine 10 mg/kg
  % Decrease in immobility w.r.t saline treated group: 74.30%
  Immobility period: 57 ± 17.45 s
Male Laca mice; Table 2, fluoxetine 10 mg/kg
  % Decrease in immobility w.r.t saline treated group: 70.51%
  Immobility period: 57 ± 17.45 s
Male Laca mice; Table 3, fluoxetine 10 mg/kg
  % Decrease in immobility w.r.t saline treated group: 70.51%
  Immobility period: 57 ± 17.45 s
Male Laca mice; [1]
  % Decrease in immobility w.r.t saline group: 12.30%
  Immobility period: 172.75 ± 10.4 s
Norepinephrine
  Norepinephrine % increase w.r.t Control: 40.87%
Norepinephrine; n = 5
  Norepinephrine (ng/mg tissue): 4.17 ± 0.23a ng/mg tissue

## COc1ccc(C(CN(C)C)C2(O)CCCCC2)cc1 (centres unmarked) [Venlafaxine]
Male Laca mice; [2]
  % Decrease in immobility w.r.t vehicle group: 8.69%
  Immobility period: 193.8 ± 13.26 s

## CNCCCN1c2ccccc2CCc2ccccc21 [Desipramine]
Male Laca mice; [3]
  % Decrease in immobility w.r.t vehicle group: 17.46%
  Immobility period: 211.5 ± 21.97 s

## N[C@@H]1C[C@H]1c1ccccc1 (racemic) [Tranylcypromine]
Male Laca mice; [4]
  % Decrease in immobility w.r.t vehicle group: 15.15%
  Immobility period: 234 ± 20.41 s
